Experimental data reported in the Kinase Knowledgebase extract (Sharma et al. 2016).

molecular target: PIK3CA (human) (UniProt P42336); assay: Inhibition of PIK3CA Kinase Activity (Fluorescence Polarization Format Assay); details: not given
Sequence (P42336 whole entry, looked up): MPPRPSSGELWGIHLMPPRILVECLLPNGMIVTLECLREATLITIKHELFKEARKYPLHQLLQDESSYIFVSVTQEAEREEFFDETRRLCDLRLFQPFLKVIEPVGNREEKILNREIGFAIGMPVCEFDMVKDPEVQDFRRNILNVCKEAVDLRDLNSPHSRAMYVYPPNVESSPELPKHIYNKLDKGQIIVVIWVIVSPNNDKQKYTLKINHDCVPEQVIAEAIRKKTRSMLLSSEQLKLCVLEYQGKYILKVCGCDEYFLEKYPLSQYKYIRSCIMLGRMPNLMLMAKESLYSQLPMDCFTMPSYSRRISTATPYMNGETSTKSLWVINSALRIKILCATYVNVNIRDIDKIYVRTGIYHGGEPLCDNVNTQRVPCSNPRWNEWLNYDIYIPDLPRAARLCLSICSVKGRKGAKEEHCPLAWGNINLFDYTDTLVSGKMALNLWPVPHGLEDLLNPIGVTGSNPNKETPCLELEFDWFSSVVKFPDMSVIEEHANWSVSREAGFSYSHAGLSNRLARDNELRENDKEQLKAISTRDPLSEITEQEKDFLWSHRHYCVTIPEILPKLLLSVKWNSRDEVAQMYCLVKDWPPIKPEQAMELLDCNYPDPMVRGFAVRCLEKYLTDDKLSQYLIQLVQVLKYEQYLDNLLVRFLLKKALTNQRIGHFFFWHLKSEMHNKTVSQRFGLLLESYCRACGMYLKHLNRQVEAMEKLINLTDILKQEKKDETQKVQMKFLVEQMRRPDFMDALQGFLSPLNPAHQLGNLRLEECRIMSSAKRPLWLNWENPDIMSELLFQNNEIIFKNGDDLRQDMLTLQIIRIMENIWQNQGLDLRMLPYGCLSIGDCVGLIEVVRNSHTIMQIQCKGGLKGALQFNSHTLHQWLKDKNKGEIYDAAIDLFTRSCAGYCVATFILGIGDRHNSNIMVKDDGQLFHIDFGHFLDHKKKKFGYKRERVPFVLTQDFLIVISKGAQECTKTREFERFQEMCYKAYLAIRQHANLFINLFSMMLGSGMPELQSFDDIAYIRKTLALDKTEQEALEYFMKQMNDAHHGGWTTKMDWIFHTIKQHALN

Row | Structure (SMILES) | IC50
1 | Oc1cccc(-c2nc(N3CCOCC3)c3cc[nH]c3n2)c1 | 43 nM
2 | CN(C)CCn1ccc2c(N3CCOCC3)nc(-c3cccc(O)c3)nc21 | 76 nM
3 | Cc1cccc(-c2nc(N3CCOCC3)c3[nH]ccc3n2)c1 | 1510 nM
4 | O=C(Nc1ccncc1)Nc1ccc(-c2nc(N3CCOCC3)c3ccn(CCN4CCCC4)c3n2)cc1 | 30 nM
5 | CCNC(=O)Nc1ccc(-c2nc(N3CCOCC3)c3ccn(CCN(C)C)c3n2)cc1 | 226 nM

molecular target: ERBB2;PIK3CA (human) (UniProt P42336); assay: Inhibition of ERBB2 and PIK3CA Kinase Activity in MDA361 Cells; details: mda-361
Sequence (P42336 whole entry, looked up): as above

Row | Structure (SMILES) | IC50
6 | CN(C)CCN(C)C(=O)c1ccc(NC(=O)Nc2ccc(-c3nc(N4CCOCC4)c4ccn(CC(F)(F)F)c4n3)cc2)cc1 | < 3 nM
